Literature values as cited in patent publication US20230357798A1, “GENE CORRECTION FOR X-CGD IN HEMATOPOIETIC STEM AND PROGENITOR CELLS” (THE BOARD OF TRUSTEES OF THE LELAND STANFORD JUNIOR …, priority 2020, published 2023).
Like-named read-outs stand apart in the source and are kept apart here.

Legend:
CD34^+ HSPCs [1] = details: for cell viability relative to edited controls: single agent, CD34+ HSPCs
CD34^+ HSPCs [2] = tested on: CD34^+ HSPCs

SMILES | HSPC viability (CD34^+ HSPCs [1]; combined with Trichostatin A and NSC 15520) [%] | cell viability relative to edited controls (CD34^+ HSPCs [1]) [%] | enhancement of HDR (CD34^+ HSPCs [2]; combined with Trichostatin A and NSC 15520, CRISPR/Cpf1, ssODN donor) [fold] | enhancement of HDR (CD34^+ HSPCs [2]; single agent, CD34+ HSPCs) [fold]
O=c1cc(N2CCOCC2)oc2c1ccc1ccccc12 [NU7026] | 65 | ~80 | 2.6 | 1.7
O=c1cc(N2CCOCC2)oc2c(-c3cccc4c3sc3ccccc34)cccc12 [NU7441] |  | ~65 |  | 2
